Test system: 855422-203-R-J1-PDC spheroids with HUVEC/MSC, viability
Test: Anticancer human tumor 855422-203-R-J1-PDC patient-derived bladder carcinoma cell line growth inhibition [PI3K]
Details: for viability, T/C: stronger effect = lower value
Outline: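 Combination activity was assessed by viability in multicellular tumor spheroids carrying HUVEC and MSC components. Agents were tested with PI3K inhibitors from a Cmax-based top dose (or 10 microM) downward in half-log increments.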

[1] = curve of first compound, second compound 0.00316 µM
[2] = curve of first compound, second compound 0.01 µM
[3] = curve of first compound, second compound 0.0316 µM
[4] = curve of first compound, second compound 0.1 µM
[5] = curve of first compound, second compound 0.316 µM
[6] = curve of first compound, second compound 1 µM
[7] = second compound 0.00316 µM, first compound 0.0316 µM
[8] = second compound 0.00316 µM, first compound 0.1 µM
[9] = second compound 0.00316 µM, first compound 0.316 µM
[10] = second compound 0.00316 µM, first compound 1 µM
[11] = second compound 0.00316 µM, first compound 3.16 µM
[12] = second compound 0.00316 µM, first compound 10 µM
[13] = second compound 0.01 µM, first compound 0.0316 µM
[14] = second compound 0.01 µM, first compound 0.1 µM
[15] = second compound 0.01 µM, first compound 0.316 µM
[16] = second compound 0.01 µM, first compound 1 µM
[17] = second compound 0.01 µM, first compound 3.16 µM
[18] = second compound 0.01 µM, first compound 10 µM
[19] = second compound 0.0316 µM, first compound 0.0316 µM
[20] = second compound 0.0316 µM, first compound 0.1 µM
[21] = second compound 0.0316 µM, first compound 0.316 µM
[22] = second compound 0.0316 µM, first compound 1 µM
[23] = second compound 0.0316 µM, first compound 3.16 µM
[24] = second compound 0.0316 µM, first compound 10 µM
[25] = second compound 0.1 µM, first compound 0.0316 µM
[26] = second compound 0.1 µM, first compound 0.1 µM
[27] = second compound 0.1 µM, first compound 0.316 µM
[28] = second compound 0.1 µM, first compound 1 µM
[29] = second compound 0.1 µM, first compound 3.16 µM
[30] = second compound 0.1 µM, first compound 10 µM
[31] = second compound 0.316 µM, first compound 0.0316 µM
[32] = second compound 0.316 µM, first compound 0.1 µM
[33] = second compound 0.316 µM, first compound 0.316 µM
[34] = second compound 0.316 µM, first compound 1 µM
[35] = second compound 0.316 µM, first compound 3.16 µM
[36] = second compound 0.316 µM, first compound 10 µM
[37] = second compound 1 µM, first compound 0.0316 µM
[38] = second compound 1 µM, first compound 0.1 µM
[39] = second compound 1 µM, first compound 0.316 µM
[40] = second compound 1 µM, first compound 1 µM
[41] = second compound 1 µM, first compound 3.16 µM
[42] = second compound 1 µM, first compound 10 µM
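Also: agents incubated with spheroids for one week before read-out.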
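For viability, T/C in this document: 100% = DMSO vehicle-treated control wells.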

`Cn1cnc2c(F)c(Nc3ccc(Br)cc3Cl)c(C(=O)NOCCO)cc21` + CC(Nc1ccc2c(c1)OCCn1cc(N3C(=O)OCC3C(F)F)nc1-2)C(N)=O showed an IC50 [1] of 2280 nM, an IC50 [2] of 2150 nM and an IC50 [3] of 1870 nM. It also gave an IC50 [4] of 769 nM, an IC50 [5] of less than 9.49 nM and an IC50 [6] of less than 9.49 nM. It also gave a viability, T/C (second compound 0.00316 µM, first compound 0.00949 µM) of 91.7%, a viability, T/C (second compound 0.00316 µM, first compound 0.03 µM) of 83.8% and a viability, T/C (second compound 0.00316 µM, first compound 0.0949 µM) of 104%. For the same compound, the viability, T/C (second compound 0.00316 µM, first compound 0.3 µM) was 83.2%, the viability, T/C (second compound 0.00316 µM, first compound 0.949 µM) was 82.5% and the viability, T/C (second compound 0.00316 µM, first compound 3 µM) was 39.8%. The viability, T/C (second compound 0.01 µM, first compound 0.00949 µM) was 95.9%, the viability, T/C (second compound 0.01 µM, first compound 0.03 µM) was 89.1% and the viability, T/C (second compound 0.01 µM, first compound 0.0949 µM) was 97.7%. It also gave a viability, T/C (second compound 0.01 µM, first compound 0.3 µM) of 81.4%, a viability, T/C (second compound 0.01 µM, first compound 0.949 µM) of 80.9% and a viability, T/C (second compound 0.01 µM, first compound 3 µM) of 37.9%. It also gave a viability, T/C (second compound 0.0316 µM, first compound 0.00949 µM) of 81%, a viability, T/C (second compound 0.0316 µM, first compound 0.03 µM) of 83.4% and a viability, T/C (second compound 0.0316 µM, first compound 0.0949 µM) of 91.5%. The viability, T/C (second compound 0.0316 µM, first compound 0.3 µM) was 92.3%, the viability, T/C (second compound 0.0316 µM, first compound 0.949 µM) was 75% and the viability, T/C (second compound 0.0316 µM, first compound 3 µM) was 32.6%. The viability, T/C (second compound 0.1 µM, first compound 0.00949 µM) was 64.9%, the viability, T/C (second compound 0.1 µM, first compound 0.03 µM) was 67.1% and the viability, T/C (second compound 0.1 µM, first compound 0.0949 µM) was 67.3%. It also gave a viability, T/C (second compound 0.1 µM, first compound 0.3 µM) of 71.3%, a viability, T/C (second compound 0.1 µM, first compound 0.949 µM) of 46% and a viability, T/C (second compound 0.1 µM, first compound 3 µM) of 22.2%. It also gave a viability, T/C (second compound 0.316 µM, first compound 0.00949 µM) of 47.6%, a viability, T/C (second compound 0.316 µM, first compound 0.03 µM) of 45.7% and a viability, T/C (second compound 0.316 µM, first compound 0.0949 µM) of 47.3%. The viability, T/C (second compound 0.316 µM, first compound 0.3 µM) was 38.3%, the viability, T/C (second compound 0.316 µM, first compound 0.949 µM) was 28.6% and the viability, T/C (second compound 0.316 µM, first compound 3 µM) was 9.16%. It also gave a viability, T/C (second compound 1 µM, first compound 0.00949 µM) of 30.4%, a viability, T/C (second compound 1 µM, first compound 0.03 µM) of 28.1% and a viability, T/C (second compound 1 µM, first compound 0.0949 µM) of 25.3%. For the same compound, the viability, T/C (second compound 1 µM, first compound 0.3 µM) was 21.3%, the viability, T/C (second compound 1 µM, first compound 0.949 µM) was 16.1% and the viability, T/C (second compound 1 µM, first compound 3 µM) was 4.67%.

Work on `CCCS(=O)(=O)Nc1ccc(F)c(C(=O)c2c[nH]c3ncc(-c4ccc(Cl)cc4)cc23)c1F` + COc1c(OCCCN2CCOCC2)ccc2c3n(c(=NC(=O)c4cnc(N)nc4)nc12)CCN3 yielded an IC50 [1] of 4390 nM, an IC50 [2] of 4840 nM and an IC50 [3] of 3060 nM. For the same compound, the IC50 [4] was less than 31.6 nM, the IC50 [5] was less than 31.6 nM and the IC50 [6] was less than 31.6 nM. It also gave a viability, T/C [7] of 97.6%, a viability, T/C [8] of 83.8% and a viability, T/C [9] of 87.2%. For the same compound, the viability, T/C [10] was 82.5%, the viability, T/C [11] was 71.3% and the viability, T/C [12] was 0.07%. The viability, T/C [13] was 105%, the viability, T/C [14] was 89.5% and the viability, T/C [15] was 83%. The viability, T/C [16] was 90.6%, the viability, T/C [17] was 78.9% and the viability, T/C [18] was 0.31%. It also gave a viability, T/C [19] of 68.2%, a viability, T/C [20] of 75.1% and a viability, T/C [21] of 78.6%. The viability, T/C [22] was 67.1%, the viability, T/C [23] was 49.7% and the viability, T/C [24] was 0.93%. It also gave a viability, T/C [25] of 34.5%, a viability, T/C [26] of 35.3% and a viability, T/C [27] of 34.1%. For the same compound, the viability, T/C [28] was 32.4%, the viability, T/C [29] was 23.9% and the viability, T/C [30] was 1.58%. The viability, T/C [31] was 11.9%, the viability, T/C [32] was 11.4% and the viability, T/C [33] was 11.9%. It also gave a viability, T/C [34] of 11.8%, a viability, T/C [35] of 8.59% and a viability, T/C [36] of 0.86%. The viability, T/C [37] was 4.83%, the viability, T/C [38] was 3.64% and the viability, T/C [39] was 4.81%. It also gave a viability, T/C [40] of 6.51%, a viability, T/C [41] of 3.75% and a viability, T/C [42] of 2%.

`COc1c(OCCCN2CCOCC2)ccc2c3n(c(=NC(=O)c4cnc(N)nc4)nc12)CCN3` was tested, and the viability, T/C (compound 0.00316 µM) was 100% [middle of 8 runs], the viability, T/C (compound 0.01 µM) was 92% [middle of 8 runs] and the viability, T/C (compound 0.0316 µM) was 71.8% [middle of 8 runs]. The viability, T/C (compound 0.1 µM) was 30.5% [middle of 8 runs], the viability, T/C (compound 0.316 µM) was 9.42% [middle of 8 runs] and the viability, T/C (compound 1 µM) was 4.6% [middle of 8 runs]. For the same compound, the IC50 (compound alone, run of 05/09/2023) was 58.2 nM [middle of 8 runs].

In the case of `CC1(C)CCC(Nc2ncc(C(F)(F)F)c(-c3c[nH]c4c(P(C)(C)=O)c(C#N)ccc34)n2)CN1` (stereo not drawn) + CC(Nc1ccc2c(c1)OCCn1cc(N3C(=O)OCC3C(F)F)nc1-2)C(N)=O, the IC50 [1] is reported as less than 31.6 nM, the IC50 [2] is reported as less than 31.6 nM and the IC50 [3] is reported as less than 31.6 nM. It also gave an IC50 [4] of less than 31.6 nM, an IC50 [5] of less than 31.6 nM and an IC50 [6] of less than 31.6 nM. It also gave a viability, T/C [7] of 23.7%, a viability, T/C [8] of 25% and a viability, T/C [9] of 27.9%. For the same compound, the viability, T/C [10] was 31.6%, the viability, T/C [11] was 31.4% and the viability, T/C [12] was 3.85%. It also gave a viability, T/C [13] of 20.4%, a viability, T/C [14] of 21.3% and a viability, T/C [15] of 26.2%. The viability, T/C [16] was 25.8%, the viability, T/C [17] was 29.1% and the viability, T/C [18] was 3.78%. The viability, T/C [19] was 20.2%, the viability, T/C [20] was 22.9% and the viability, T/C [21] was 22.2%. It also gave a viability, T/C [22] of 24.6%, a viability, T/C [23] of 24.1% and a viability, T/C [24] of 2.13%. For the same compound, the viability, T/C [25] was 20.2%, the viability, T/C [26] was 19.4% and the viability, T/C [27] was 20%. It also gave a viability, T/C [28] of 23.2%, a viability, T/C [29] of 21.5% and a viability, T/C [30] of 3.77%. It also gave a viability, T/C [31] of 15.3%, a viability, T/C [32] of 17.9% and a viability, T/C [33] of 15.7%. For the same compound, the viability, T/C [34] was 15.5%, the viability, T/C [35] was 13.7% and the viability, T/C [36] was 1.23%. The viability, T/C [37] was 14.4%, the viability, T/C [38] was 14.2% and the viability, T/C [39] was 13.1%. The viability, T/C [40] was 12.6%, the viability, T/C [41] was 11.4% and the viability, T/C [42] was 0.83%.

— PubChem BioAssay AID1963967 (Molecular Pharmacology Branch, DTP, NCI, 2024)
